Legend:
[1] = target: T1, Prostaglandin G/H synthase 2 (Ovis aries, UniProt P79208); assay: Inhibition of ovine COX2 by enzyme immunoassay
T1 sequence (P79208 whole entry): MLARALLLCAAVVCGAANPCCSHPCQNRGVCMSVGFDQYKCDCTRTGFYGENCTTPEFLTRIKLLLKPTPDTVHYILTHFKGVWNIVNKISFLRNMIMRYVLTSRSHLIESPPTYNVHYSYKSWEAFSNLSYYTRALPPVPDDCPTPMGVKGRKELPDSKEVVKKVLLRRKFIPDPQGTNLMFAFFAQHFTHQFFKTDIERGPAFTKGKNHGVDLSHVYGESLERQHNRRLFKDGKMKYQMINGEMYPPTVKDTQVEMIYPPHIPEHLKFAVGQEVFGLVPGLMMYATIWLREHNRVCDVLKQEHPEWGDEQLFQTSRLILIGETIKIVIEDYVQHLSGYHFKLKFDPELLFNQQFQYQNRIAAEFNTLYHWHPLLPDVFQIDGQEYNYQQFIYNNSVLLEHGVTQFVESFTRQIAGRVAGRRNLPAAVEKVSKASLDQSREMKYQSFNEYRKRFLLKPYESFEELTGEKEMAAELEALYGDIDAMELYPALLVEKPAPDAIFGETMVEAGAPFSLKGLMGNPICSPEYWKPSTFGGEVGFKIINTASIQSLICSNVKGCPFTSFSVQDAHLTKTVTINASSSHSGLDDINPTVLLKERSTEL

[2] = target: T2, Prostaglandin G/H synthase 1 (Ovis aries, UniProt P05979); assay: Inhibition of ovine COX1 by enzyme immunoassay
T2 sequence (P05979 whole entry): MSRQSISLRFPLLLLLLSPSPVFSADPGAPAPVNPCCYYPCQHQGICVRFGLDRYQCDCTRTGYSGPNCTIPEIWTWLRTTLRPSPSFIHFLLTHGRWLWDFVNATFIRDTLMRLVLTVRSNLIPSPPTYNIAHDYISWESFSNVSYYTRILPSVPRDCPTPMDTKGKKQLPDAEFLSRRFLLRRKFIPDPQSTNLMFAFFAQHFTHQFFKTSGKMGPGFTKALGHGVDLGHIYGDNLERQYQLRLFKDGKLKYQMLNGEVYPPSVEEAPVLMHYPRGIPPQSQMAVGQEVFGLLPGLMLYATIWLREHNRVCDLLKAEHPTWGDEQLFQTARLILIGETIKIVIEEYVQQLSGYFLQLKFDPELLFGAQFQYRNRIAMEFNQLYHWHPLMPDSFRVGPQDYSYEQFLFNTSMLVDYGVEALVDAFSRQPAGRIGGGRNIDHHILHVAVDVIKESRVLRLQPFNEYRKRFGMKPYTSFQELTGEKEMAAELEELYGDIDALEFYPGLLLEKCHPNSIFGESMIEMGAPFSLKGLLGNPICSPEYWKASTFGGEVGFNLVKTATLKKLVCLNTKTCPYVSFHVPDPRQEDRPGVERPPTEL

Ovis aries = species: Ovis aries; assay: Selectivity index, ratio of IC50 for ovine COX1 to IC50 for ovine COX2

SMILES	IC50 [1]	IC50 [2]	COX1/COX2 IC50 selectivity index (Ovis aries)
Cc1ccc(C2=C(c3ccc(NS(C)(=O)=O)cc3)COC2=O)cc1	0.9 µM	> 100 µM	> 111
CS(=O)(=O)Nc1ccc(C2=C(c3ccc(F)cc3)C(=O)OC2)cc1	3.2 µM	10 µM	3.1
CS(=O)(=O)Nc1ccc(C2=C(c3ccccc3)C(=O)OC2)cc1	1.7 µM	31.6 µM	18.5
CS(=O)(=O)Nc1ccc(C2=C(c3ccc(Cl)cc3)C(=O)OC2)cc1	0.8 µM	31.5 µM	39.4
COc1ccc(C2=C(c3ccc(NS(C)(=O)=O)cc3)COC2=O)cc1	31.5 µM	> 100 µM	> 31
CS(=O)(=O)Nc1ccc(C2=C(c3ccc(Br)cc3)C(=O)OC2)cc1	3.2 µM	35.5 µM	11.1

Reference: ChEMBL document CHEMBL1144527 (Bioorg Med Chem, 2007)
